The source of these data is article PMC8200237, “New Oxaliplatin-Pyrophosphato Analogs with Improved In Vitro Cytotoxicity” (Molecules, 2021).

Molecules are shown by their SMILES. Like-named read-outs stand apart in the source and are kept apart here.

The test system of series [1] is MDA MB 231 human breast cancer cells. In words: MTT cell viability assay, MDA MB 231. The series is classed as cell-based. Conditions: MTT test, 72 h; read-out: IC50 (µM) ± S.D. MDAMB231. The procedure: (§1) The in vitro cytotoxicity of the Pt-pyrophosphato complexes (1, 2, 3, and 4) was evaluated on a panel of human cancer cell lines and compared to that of cisplatin and oxaliplatin. Cell lines representative of colon (HCT-116), prostate (PC3), breast (MDA-MB231), and […] (OV2008) carcinomas were included.
(§2) The number of living cells was evaluated by the 3-(4,5-dimethylthiazol-2-yl)-2,5-diphenyltetrazolium bromide (MTT) assay. Briefly, HCT116 human colon cancer cells, PC3 human prostate cancer cells, OV2008 human ovarian cancer cells, and MDA MB 231 human breast cancer cells were plated in 96-well plates at a density of ~5000 cells/well. After one day of incubation at 37 °C in a humid atmosphere with 5% CO2, the culture medium was replaced with 100 µL of fresh medium (control cells) or medium containing different concentrations of the test compounds in the range 1.56–100 µM. Untreated cells were used as positive controls. After the incubation period of 72 h, 10 µL of a 0.5% (w/v) MTT/PBS solution was added to each well and the incubation was prolonged for a further 2 h. After this period, the medium was removed and replaced with 100 µL of DMSO. The absorbance of each well was measured by a microplate reader (Wallac Victor3, 1420 Multilabel Counter, Perkin-Elmer, Singapore). Each compound concentration was tested in triplicate, and results were presented as percentage of the control value. IC50 values were calculated using non-linear regression in GraphPad Prism 5.01 (San Diego, CA, USA). […]
(§3) Table S1. In vitro cytotoxicitya […]
(§4) aCells (3–5·10^3 cells […]) were treated for 72 h with increasing concentrations of the tested compounds. Cytotoxicity was assessed by the MTT test. IC50 values were calculated by the four parameter logistic model (p < 0.05). S.D. = standard deviation. OXP = oxaliplatin, CDDP = cisplatin.

For series [2], the system named is OV2008 human cervical cancer cells. Briefly: MTT cell viability assay, OV2008. Format: cell-based. Conditions: MTT test, 72 h; read-out: IC50 (µM) ± S.D. OV2008. The method, then:
as §1, §2, §3, §4

Series [3] is described as follows: Stability in acidic environment by 31P NMR (pH* 6.5). Format: physicochemical. Conditions: D2O, HEPES buffer 50 mM, pH* 6.5, 120 mM NaCl, 37 °C. The method, then:
To simulate the acidic environment surrounding cancer tissues, the stability of 1 and 2 was also investigated at pH* = 6.5 and 37 °C by ^31P NMR spectroscopy.
(§5) The stability of compounds 1 and 2 at 37 °C in buffered solutions was assessed by ^31P NMR spectroscopy. Each compound (~2 mg) was dissolved in 0.8 mL of D2O containing 50 mM 4-(2-hydroxyethyl)-1-piperazineethanesulfonic acid) (HEPES) buffer (pH* = 7.4 or pH* = 6.5) and 120 mM NaCl. The resulting solutions were transferred into NMR tubes and maintained at 37 °C. ^31P NMR spectra were recorded from time to time over a period of one month.

In series [4] the test system is HCT116 human colon cancer cells. Briefly: MTT cell viability assay, HCT116. The series is classed as cell-based. Conditions: MTT test, 72 h; read-out: IC50 (µM) ± S.D. HCT116. The method, then: as §1, §2, §3, §4
A short description of series [5]: Stability in physiological conditions by 31P NMR (pH 7.4). Conditions: D2O, HEPES buffer 50 mM, pH 7.4, 120 mM NaCl, 37 °C. The series is classed as physicochemical. The method, then:
To investigate the stability of 1 and 2 in physiological-like conditions, their solutions in D2O containing HEPES buffer (50 mM, pH = 7.4) and NaCl (120 mM) were monitored at 37 °C by ^31P NMR spectroscopy. […] However, overall, also compound 2 can be considered stable for the time necessary to perform the in vitro cytotoxicity tests (72 h, see following section).
as §5

For series [6], the system named is panel of four human cancer cell lines. In words: MTT cytotoxicity, average over the four cell lines. Format: cell-based. Conditions: average over HCT116, PC3, OV2008, MDAMB231; MTT test, 72 h; read-out: IC50 (µM) ± S.D. Average. The method, then:
as §1
From this point of view, oxaliplatin represents a better reference compound, with the bidentate oxalato ligand being more similar to the bidentate pyrophosphato ligand.
as §2, §3, §4

The test system of series [7] is PC3 human prostate cancer cells. Briefly: MTT cell viability assay, PC3. Conditions: MTT test, 72 h; read-out: IC50 (µM) ± S.D. PC3. Format: cell-based. The procedure:
as §1, §2, §3, §4

Series [8] in a line: 31P NMR chemical shift/pH titration, acidity constants. Format: physicochemical. Conditions: D2O, 31P NMR titration; for pKa1 (first inflection point, pH*): first deprotonation step; for pKa2 (second inflection point, pH*): second deprotonation of coordinated pyrophosphate. The procedure:
The pH titration of complexes 1 and 2 was carried on by recording ^31P NMR spectra at different pH* values (Figure 5).
Acidity constants for complexes 1 and 2 were determined by ^31P NMR chemical shift/pH titrations. Either compound 1 or 2 (0.0047 mmol) was dissolved in 0.550 mL of D2O and transferred into an NMR tube. The pH* of the sample was adjusted to the required value by addition of DClO4 (10, 1.0, 0.5, 0.1, or 0.05 M) or NaOD (1.0, 0.5, 0.1, or 0.05 M) solutions, and the pH* value was measured by using a 3 mm diameter electrode for NMR tubes. No control of the ionic strength was performed. The pH titration curves were fitted to the Henderson−Hasselbalch equation using the program KaleidaGraph (version 3.5, Synergy Software, Reading, PA, USA).

For series [9] the following is noted: cited from earlier work.
The conditions of series [10]: cited from earlier work. The source holds these as a separate data set.
Another series deals with HCT116 cells. Briefly: Annexin V/PI apoptosis assay by flow cytometry. The series is classed as cell-based, human. The procedure:
In order to obtain information on tumor cells’ death, the Annexin V/propidium iodide (PI) assay was used in flow cytometry analyses. Annexin V provides a very sensitive method for detecting cellular apoptosis, while PI is commonly used to detect necrotic or late apoptotic cells (when positive to Annexin too). The FITC Annexin V staining was carried out after 24 and 48 h of incubation of HCT116 cells with the Pt-pyrophosphato complexes (1–4) or oxaliplatin/cisplatin (used as reference compounds) at the IC50 concentrations (Supplementary Materials, Table S1). The two-dimensional dot plots can be divided into four quadrants, corresponding to: (i) viable cells, which are negative to both probes (lower left quadrant; PI/FITC −/−), (ii) early apoptotic cells, which are PI-negative and Annexin V-positive (lower right quadrant; PI/FITC −/+), (iii) late apoptotic cells, which are Annexin- and PI-positive (upper right quadrant; PI/FITC +/+), and (iv) necrotic cells, which are PI-positive and Annexin-negative (upper left quadrant; PI/FITC +/−).
The Annexin V/PI assay was conducted as previously described in order to investigate the mechanism of cell death induced by the various compounds on HCT116 cells. […]

For series [11] the following is noted: free pyrophosphate, cited from earlier work.

Turning to `NC1CC=CCC1N.O=P1(O)[O][Pt][O]P(=O)(O)O1` (racemic) [Compound 2, [Pt(dihydrogenpyrophosphato)(1,2-DACHEX)]], the IC50 is 39 ± 4 µM in [1]; 30 ± 3 µM in [2]; 20 ± 2 µM in series [4]; 47 ± 6 µM in series [6]; 100 ± 6 µM in [7]. In addition, the “time at which a small 31P NMR signal of free pyrophosphate is first observed” value came out at 96 h in [3] and 120 h in series [5]. In series [8], the “pKa1 (first inflection point, pH*)” value is listed as 2.02. The “pKa2 (second inflection point, pH*)” value in series [8] turned out to be 4.23.

For the molecule `[NH2][Pt]([NH2])([Cl])[Cl]` [CDDP, cisplatin, reference compound], the IC50 in series [1] stood at 2 ± 1 µM; in [2], 4 ± 1 µM; in [4], 9 ± 2 µM; in series [6], 6 µM; in [7] it was 9 ± 3 µM.

Turning to `O=P1([O-])OP(=O)([O-])[O][Pt]2([NH]C3CCCC(C3)[NH]2)[O]1.[Na+].[Na+]` (stereo not drawn) [Compound 1, Na2[Pt(pyrophosphato)(cis-1,3-DACH)]], the concentration for half-maximal inhibition (IC50) in series [1] amounted to 26 ± 3 µM; in series [2], 15 ± 2 µM; in [4], 21 ± 2 µM; in series [6], 23 µM; in [7] it was 29 µM. For the same molecule, the “time at which a small 31P NMR signal of free pyrophosphate is first observed” value in series [3] turned out to be 168 h; in [5] it was 672 h. Also, the “pKa1 (first inflection point, pH*)” value in series [8] worked out at 2.28. The “pKa2 (second inflection point, pH*)” value in [8] was determined as 4.55.

Turning to `N[C@@H]1CCCC[C@H]1N.O=P([O-])(O)OP(=O)([O-])O.[Pt+2]` [Compound 3, [Pt(dihydrogenpyrophosphato)(1R,2R-DACH)], reference compound], the IC50 came to 91 ± 5 µM in series [1]; 29 ± 5 µM in [2]; 19 ± 4 µM in [4]; 60 ± 8 µM in series [6]; 100 ± 8 µM in series [7]. Also, the “stability in physiological conditions” value in series [9] is on record as “quite stable”. In [10], the pKa1 is reported as 2.06. Further, in [10], the pKa2 is 4.40. In the series with HCT116 cells, the “% viable cells (lower left quadrant, PI-/Annexin V-)” value came out at 84.912%.

Turning to `O=P1(O)OP(=O)(O)[O][Pt]2([NH]C3CCC(CC3)[NH]2)[O]1` (stereo not drawn) [Compound 4, [Pt(dihydrogenpyrophosphato)(cis-1,4-DACH)]], the IC50 in series [1] was 100 ± 7 µM; in series [2] it was 46 ± 5 µM; in [4] it was 44 ± 3 µM; in series [6], 72 ± 7 µM; in series [7] it was 100 ± 5 µM. The “stability in physiological conditions” value in series [9] is “quite stable”. Further, the pKa1 in series [10] is on record as 2.03. Moreover, the pKa2 in [10] is 4.47.

In the case of `O=C1[O][Pt]2([NH][C@@H]3CCCC[C@H]3[NH]2)[O]C1=O` [OXP, oxaliplatin], the IC50 amounted to 93 ± 6 µM in [1]; 54 ± 4 µM in [2]; 72 µM in [4]; 80 µM in [6]; 100 ± 5 µM in series [7].

With `O=P(O)(O)OP(=O)(O)O` [Pyrophosphate], the pKa1 in [11] (tetrabasic acid) was 0.85. Besides, in series [11], the pKa2 is given as 1.49, the pKa3 is on record as 5.77 and the pKa4 is listed as 8.22.
